# Data from patent US9221822B2, “Thiazolopyrimidine modulators as immunosuppressive agents” (Katholieke Universiteit Leuven, K.U.Leuven R&D, priority 2009, dated 2015).
# pIC50: −log10 of the molar value.
# System: Human peripheral blood mononuclear cells (PBMCs) as Responder cells, RPMI 1788 Stimulator cells
# Assay: Mixed Lymphocyte Reaction (MLR) test
# Assay type: cell-based
# Settings: Homo sapiens, RPMI-1788, lowest concentration giving 50% inhibition of the MLR; 6 days coculture, 3H-thymidine incorporation
# Procedure: Human peripheral blood mononuclear cells (PBMCs) were isolated from buffy coats, obtained from healthy blood donors by Ficoll (Lymphoprep, Axis-Shield PoC AS, Oslo, Norway) density-gradient centrifugation. The cells at the Ficoll-plasma interface were washed three times and used as “Responder” cells. RPMI 1788 (ATCC, N^o CCL-156) cells were treated with mitomycin C (Kyowa, Nycomed, Brussel, Belgium) and used as “Stimulator” cells. Responder cells (0.12×10^6), Stimulator cells (0.045×10^6) and compounds (in different concentrations) were cocultured for 6 days in RPMI 1640 medium (BioWhittaker, Lonza, Belgium) supplemented with 10% fetal calf serum, 100 U/ml Geneticin (Gibco, LifeTechnologies, UK). Cells were cultured in triplicate in flat-bottomed 96-well microtiter tissue culture plates (TTP, Switzerland). After 5 days, cells were pulsed with 1 μCi of methyl-^3H thymidine (MP Biomedicals, USA), harvested 18 h later on glass filter paper and counted. Proliferation values were expressed as counts per minute (cpm), and converted to % inhibition with respect to a blank MLR test (identical but without added compound). […]
row,Compound,pIC50
1,"Nc1nc(N2CCN(C(=O)Nc3ccc(Br)cc3)CC2)c2nc(-c3ccc(F)cc3)sc2n1 [Example 218, 4-(5-amino-2-(4-fluorophenyl)thiazolo[5,4-d]pyrimidin-7-yl)-N-(4-bromophenyl)piperazine-1-carboxamide]",6.75
2,"Nc1nc(N2CCN(c3nccs3)CC2)c2nc(-c3ccc(F)cc3)[nH]c2n1 [Example 409, 8-(4-fluorophenyl)-6-(4-(thiazol-2-yl)piperazin-1-yl)-9H-purin-2-amine]",5.13
3,"Nc1nc(N2CCN(C(=O)COc3cccc(Cl)c3)CC2)c2nc(-c3ccc(F)cc3)sc2n1 [Example 214, 1-(4-(5-amino-2-(4-fluorophenyl)thiazolo[5,4-d]pyrimidin-7-yl)piperazin-1-yl)-2-(3-chlorophenoxy)ethanone]",6.92
4,"Nc1nc(N2CCN(C(=O)COc3ccc(Cl)cc3)CC2)c2nc(-c3ccc(F)cc3)sc2n1 [Example 45, 1-(4-(5-amino-2-(4-fluorophenyl)thiazolo[5,4-d]pyrimidin-7-yl)piperazin-1-yl)-2-(4-chlorophenoxy)ethanone]",6.52
5,"Cc1ccc(CCc2nc3c(N4CCN(C(=O)COc5ccc(Cl)cc5)CC4)nc(N)nc3s2)cc1 [Example 260, 1-(4-(5-amino-2-(4-methylphenethyl)thiazolo[5,4-d]pyrimidin-7-yl)piperazin-1-yl)-2-(4-chlorophenoxy)ethanone]",6.09
6,"Nc1nc(N2CCN(CC(=O)N3CCOCC3)CC2)c2nc(-c3ccc(F)cc3)[nH]c2n1 [Example 411, 2-(4-(2-amino-8-(4-fluorophenyl)-9H-purin-6-yl)piperazin-1-yl)-1-morpholinoethanone]",< 5.00
7,"COc1ccc(OCC(=O)N2CCN(c3nc(N)nc4sc(CCCCc5ccc(F)cc5)nc34)CC2)cc1 [Example 293, 1-(4-(5-amino-2-(4-(4-fluorophenyl)butyl)thiazolo[5,4-d]pyrimidin-7-yl)piperazin-1-yl)-2-(4-methoxyphenoxy)ethanone]",6.03
8,"COC(=O)c1ccc(OCC(=O)N2CCN(c3nc(N)nc4sc(CCc5ccc(F)cc5)nc34)CC2)cc1 [Example 225, methyl 4-(2-(4-(5-amino-2-(4-fluorophenethyl)thiazolo[5,4-d]pyrimidin-7-yl)piperazin-1-yl)-2-oxoethoxy)benzoate]",< 5.00
9,"Cc1cccc(NC(=O)N2CCN(c3nc(N)nc4sc(CCc5ccc(F)cc5)nc34)CC2)c1 [Example 133, 5-amino-2-[2-(4-fluorophenyl)ethyl]-7-(4-m-tolylcarbamoylpiperazin-1-yl)-thiazolo[5,4-d]pyrimidine]",< 5.00
10,"Nc1nc(N2CCN(C(=O)COc3ccc(Cl)cc3)CC2)c2nc(C3CC3)[nH]c2n1 [Example 398, 1-(4-(2-amino-8-cyclopropyl-9H-purin-6-yl)piperazin-1-yl)-2-(4-chlorophenoxy)ethanone]",6.37
11,"CCOc1nc(N)nc2sc(-c3ccc(F)cc3)nc12 [Example 30, 7-ethoxy-2-(4-fluorophenyl)thiazolo[5,4-d]pyrimidin-5-amine]",< 5.00
12,"Nc1nc(N2CCCN(C(=O)c3ccc(Cl)cc3)CC2)c2cc(-c3ccccc3)sc2n1 [Example 335, (4-(2-amino-6-phenylthieno[2,3-d]pyrimidin-4-yl)-1,4-diazepan-1-yl)(4-chlorophenyl)methanone]",< 5.00
13,"COc1cccc(-c2nc3c(N4CCN(C(=O)COc5ccc(Cl)cc5)CC4)nc(N)nc3s2)c1 [Example 124, 5-amino-7-[4-(4-chlorophenoxyacetyl)piperazin-1-yl]-2-(3-methoxyphenyl)thiazolo[5,4-d]pyrimidine]",6.92
14,"Nc1nc(N2CCN(C(=O)COc3cccc(Cl)c3)CC2)c2nc(CCc3ccc(F)cc3)sc2n1 [Example 228, 1-(4-(5-amino-2-(4-fluorophenethyl)thiazolo[5,4-d]pyrimidin-7-yl)piperazin-1-yl)-2-(3-chlorophenoxy)ethanone]",5.76
15,"Nc1nc(N2CCN(C(=O)COc3ccc(Cl)cc3)CC2)c2nc(C3(c4ccccc4)CC3)sc2n1 [Example 114, 5-amino-7-[4-(4-chlorophenoxyacetyl)piperazin-1-yl]-2-(1-phenylcyclopropyl)thiazolo[5,4-d]pyrimidine]",5.81
16,"Cc1cccc(NC(=O)N2CCN(c3nc(N)nc4oc(CCc5ccc(F)cc5)nc34)CC2)c1 [Example 196, 5-amino-2-[2-(4-fluorophenyl)ethyl]-7-(4-m-tolylcarbamoylpiperazin-1-yl)-oxazolo[5,4-d]pyrimidine]",5.40
17,"CCOc1nc(N)nc2sc(Cc3ccc(F)cc3)nc12 [Example 31, 7-ethoxy-2-(4-fluorobenzyl)thiazolo[5,4-d]pyrimidin-5-amine]",5.01
18,"Nc1nc(N2CCN(CC(=O)N3CCOCC3)CC2)c2nc(-c3ccc(F)cc3)sc2n1 [Example 38, 2-(4-(5-amino-2-(4-fluorophenyl)thiazolo[5,4-d]pyrimidin-7-yl)piperazin-1-yl)-1-morpholinoethanone]",5.32
19,"Nc1nc(N2CCN(C(=O)CCc3ccc(Br)cc3)CC2)c2nc(CCc3ccc(F)cc3)sc2n1 [Example 223, 1-(4-(5-amino-2-(4-fluorophenethyl)thiazolo[5,4-d]pyrimidin-7-yl)piperazin-1-yl)-3-(4-bromophenyl)propan-1-one]",< 5.00
20,"Nc1nc(N2CCN(C(=O)COc3ccc(Cl)cc3)CC2)c2nc(SCCc3ccccc3)[nH]c2n1 [Example 427, 1-(4-(2-amino-8-(phenethylthio)-9H-purin-6-yl)piperazin-1-yl)-2-(4-chlorophenoxy)ethanone]",< 5.00
21,"Nc1nc(N2CCN(C(=O)COc3ccc(Cl)cc3)CC2)c2nc(SC3CCCC3)[nH]c2n1 [Example 429, 1-(4-(2-amino-8-(cyclopentylthio)-9H-purin-6-yl)piperazin-1-yl)-2-(4-chlorophenoxy)ethanone]",6.29
22,"Nc1nc(N2CCN(C(=O)COc3ccc(Cl)cc3)CC2)c2nc(-c3ccc(F)cc3)[nH]c2n1 [Example 389, 1-(4-(2-amino-8-(4-fluorophenyl)-9H-purin-6-yl)piperazin-1-yl)-2-(4-chlorophenoxy)ethanone]",6.09
23,"COc1ccc(CCc2nc3c(N4CCN(C(=O)COc5ccc(Br)cc5)CC4)nc(N)nc3s2)cc1OC [Example 256, 1-(4-(5-amino-2-(3,4-dimethoxyphenethyl)thiazolo[5,4-d]pyrimidin-7-yl)piperazin-1-yl)-2-(4-bromophenoxy)ethanone]",6.13
24,"CC(C)(Oc1ccc(Cl)cc1)C(=O)N1CCN(c2nc(N)nc3sc(-c4ccc(F)cc4)nc23)CC1 [Example 237, 1-(4-(5-amino-2-(4-fluorophenyl)thiazolo[5,4-d]pyrimidin-7-yl)piperazin-1-yl)-2-(4-chlorophenoxy)-2-methylpropan-1-one]",< 5.00
25,"Nc1nc(N2CCN(C(=O)COc3cccc([N+](=O)[O-])c3)CC2)c2nc(-c3ccc(F)cc3)sc2n1 [Example 129, 5-amino-2-(4-fluorophenyl)-7-(4-[2-(3-nitrophenoxy)acetyl]-piperazin-1-yl)-thiazolo[5,4-d]pyrimidine]",6.54
26,"Nc1nc(N2CCN(C(=O)C3CCCCC3)CC2)c2cc(-c3ccc(F)cc3)sc2n1 [Example 345, (4-(2-amino-6-(4-fluorophenyl)thieno[2,3-d]pyrimidin-4-yl)piperazin-1-yl)(cyclohexyl)methanone]",< 5.00
